# Results published in US9932368B2, “Peptides for the stimulation of collagen formation” (INFINITEC ACTIVOS S.L, priority 2013, dated 2018).
# The star is where a group is joined. Palmitoyl = CCCCCCCCCCCCCCCC(=O)*
# Test system: type I collagen
# Experiment: Determination of collagen biosynthesis (type I collagen ELISA), single peptides and mixture, Example 10
# Type: cell-based, human
# Details: 20, 40 and 80 μg/ml, 72 hours; ELISA O.D. 450 nm; vs untreated cells
# Experimental: Human Dermal Fibroblasts (ATCC PCS-201-012) were seeded in 96-well plates (3000 cells per well), and left to grow in DMEM containing 5% fetal bovine serum (FBS) for 48 hours. The medium was then replaced with fresh medium containing 0.1% FBS and the corresponding treatment for determining collagen production. After the incubation with each of the peptides (1, 2, and 3) and the mixture of peptides 1-3 synthesized in Example 1, at different concentrations (20, 40 and 80 μg/ml) of each peptide dissolved in DMEM medium in an equivalent proportion of each of them in the mixture (1:1:1 w/w/w), for a period of 72 hours, the same amounts of supernatant were added to a plate coated with human type I collagen antibody (commercial rabbit polyclonal antibodies against human collagen I, code A03C0377, provided by Bluegene Biotech Co. Ltd). The plate was incubated at room temperature for 2 hours to allow the antibody and the produced collagen to react with one another. The plate was then washed three times with PBS containing 0.5% Tween 20 for removing the remaining unbound sample. Next, a human antibody which recognizes the biotin-labeled type I collagen was added for 1 hour. After washing the plate with phosphate buffered saline (PBS) containing 0.5% Tween 20 for removing non-specific interactions, streptavidin-horseradish peroxidase (HRP) (St Louis, Sigma) was added. The amount of collagen in each well was determined using tetramethylbenzidine (TMB) (St Louis, Sigma) as the substrate for the HRP. The reaction between the HRP and TMB was stopped by adding 1 N HCl, and the O.D. (optical density) was measured at 450 nm. The untreated cells represented the negative control of the experiment.
row,Substance,induction of type I collagen
1,Palm-RGDGPQGPQ-NH2 (Palmitoyl-RGDGPQGPQ-NH2; SMILES CCCCCCCCCCCCCCCC(=O)N[C@@H](CCCNC(=N)N)C(=O)NCC(=O)N[C@@H](CC(=O)O)C(=O)NCC(=O)N1CCC[C@H]1C(=O)N[C@@H](CCC(N)=O)C(=O)NCC(=O)N1CCC[C@H]1C(=O)N[C@@H](CCC(N)=O)C(N)=O) [Peptide 2],capable of inducing type I collagen production
2,Palm-WRFQWQFEQ-NH2 (Palmitoyl-WRFQWQFEQ-NH2; SMILES CCCCCCCCCCCCCCCC(=O)N[C@@H](Cc1c[nH]c2ccccc12)C(=O)N[C@@H](CCCNC(=N)N)C(=O)N[C@@H](Cc1ccccc1)C(=O)N[C@@H](CCC(N)=O)C(=O)N[C@@H](Cc1c[nH]c2ccccc12)C(=O)N[C@@H](CCC(N)=O)C(=O)N[C@@H](Cc1ccccc1)C(=O)N[C@@H](CCC(=O)O)C(=O)N[C@@H](CCC(N)=O)C(N)=O) [Peptide 3],capable of inducing type I collagen production
3,Palm-RGDGANPNAAG-NH2 (Palmitoyl-RGDGANPNAAG-NH2; SMILES CCCCCCCCCCCCCCCC(=O)N[C@@H](CCCNC(=N)N)C(=O)NCC(=O)N[C@@H](CC(=O)O)C(=O)NCC(=O)N[C@@H](C)C(=O)N[C@@H](CC(N)=O)C(=O)N1CCC[C@H]1C(=O)N[C@@H](CC(N)=O)C(=O)N[C@@H](C)C(=O)N[C@@H](C)C(=O)NCC(N)=O) [Peptide 1],capable of inducing type I collagen production
